From ChEMBL document CHEMBL1149262, “Monoamine transporter binding, locomotor activity, and drug discrimination properties of 3-(4-substituted-phenyl)tropane-2-carboxylic acid methyl ester isomers” (J Med Chem, 2004)
Calls of active or inactive are those of the source. The rule behind the calls is not given here.

Tests used:
Mus musculus [1] = experiment: Locomotor activity in CD1 mouse assessed as stimulation at 10 mg/kg, ip after 2 hrs relative to control; assay type: functional; conditions: route intraperitoneal
Mus musculus [2] = experiment: Activity in CD1 mouse assessed as circling at 100 mg/kg, ip after 4 hrs; assay type: functional, organism-based; set-up: dose 100 mg/kg
Mus musculus [3] = experiment: Activity in CD1 mouse assessed as hypoactivity at 100 mg/kg, ip after 4 hrs; assay type: functional, organism-based; set-up: dose 100 mg/kg
Mus musculus [4] = experiment: Locomotor activity in CD1 mouse assessed as stimulation at 10 mg/kg, ip after 3 hrs relative to control; assay type: functional; conditions: route intraperitoneal
Rattus norvegicus [5] = experiment: Drug discrimination effect in CD Albino rat assessed as percent of rat choosing cocaine lever at 10 mg/kg, ip; assay type: functional; conditions: route intraperitoneal
Mus musculus [6] = experiment: Locomotor activity in CD1 mouse assessed as stimulation at 30 mg/kg, ip after 2 hrs relative to control; assay type: functional; conditions: route intraperitoneal
Mus musculus [7] = experiment: Activity in CD1 mouse assessed as stereotypy at 10 mg/kg, ip after 4 hrs; assay type: functional, organism-based; set-up: dose 10 mg/kg
Mus musculus [8] = experiment: Locomotor activity in CD1 mouse assessed as stimulation at 1 mg/kg, ip after 2 hrs relative to control; assay type: functional; conditions: route intraperitoneal
Mus musculus [9] = experiment: Locomotor activity in CD1 mouse assessed as stimulation at 1 mg/kg, ip after 1 hr relative to control; assay type: functional; conditions: route intraperitoneal
Mus musculus [10] = experiment: Locomotor activity in CD1 mouse assessed as stimulation at 10 mg/kg, ip after 1 hr relative to control; assay type: functional; conditions: route intraperitoneal
[11] = target: Sodium-dependent dopamine transporter (Homo sapiens, UniProt Q01959); experiment: Displacement of [3H]WIN-35428 from DAT
Sodium-dependent dopamine transporter, sequence (Q01959 whole entry): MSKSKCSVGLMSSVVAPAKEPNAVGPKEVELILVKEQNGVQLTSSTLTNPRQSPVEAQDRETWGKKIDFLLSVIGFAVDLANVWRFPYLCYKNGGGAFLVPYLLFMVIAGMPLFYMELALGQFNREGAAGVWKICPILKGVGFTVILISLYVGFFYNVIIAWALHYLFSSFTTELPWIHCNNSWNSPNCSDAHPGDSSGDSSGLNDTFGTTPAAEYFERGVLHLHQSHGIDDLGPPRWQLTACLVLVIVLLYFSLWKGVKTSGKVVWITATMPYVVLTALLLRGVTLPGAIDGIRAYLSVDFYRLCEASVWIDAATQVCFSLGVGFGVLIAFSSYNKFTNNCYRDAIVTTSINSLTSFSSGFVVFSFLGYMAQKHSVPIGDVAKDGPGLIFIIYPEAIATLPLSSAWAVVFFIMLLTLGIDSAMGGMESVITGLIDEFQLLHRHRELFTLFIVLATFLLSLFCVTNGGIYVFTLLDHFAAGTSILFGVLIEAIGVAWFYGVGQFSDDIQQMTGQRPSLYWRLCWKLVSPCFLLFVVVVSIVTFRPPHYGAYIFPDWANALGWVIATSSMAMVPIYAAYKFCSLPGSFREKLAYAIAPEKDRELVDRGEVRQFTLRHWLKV

Rattus norvegicus [12] = experiment: Drug discrimination effect in CD Albino rat assessed as percent of rat choosing cocaine lever at 3 mg/kg, ip; assay type: functional; conditions: route intraperitoneal
Mus musculus [13] = experiment: Locomotor activity in CD1 mouse assessed as stimulation at 10 mg/kg, ip after 4 hrs relative to control; assay type: functional; conditions: route intraperitoneal
Mus musculus [14] = experiment: Locomotor activity in CD1 mouse assessed as stimulation at 1 mg/kg, ip after 4 hrs relative to control; assay type: functional; conditions: route intraperitoneal
Mus musculus [15] = experiment: Activity in CD1 mouse assessed as straub tail at 100 mg/kg, ip after 4 hrs; assay type: functional, organism-based; set-up: dose 100 mg/kg
Mus musculus [16] = experiment: Activity in CD1 mouse assessed as stereotypy at 100 mg/kg, ip after 4 hrs; assay type: functional, organism-based; set-up: dose 100 mg/kg
Mus musculus [17] = experiment: Locomotor activity in CD1 mouse assessed as stimulation at 30 mg/kg, ip after 3 hrs relative to control; assay type: functional; conditions: route intraperitoneal
Mus musculus [18] = experiment: Locomotor activity in CD1 mouse assessed as stimulation at 3 mg/kg, ip after 2 hrs relative to control; assay type: functional; conditions: route intraperitoneal
Mus musculus [19] = experiment: Locomotor activity in ip dosed CD1 mouse in peak hour; assay type: functional
Rattus norvegicus [20] = experiment: Cocaine discrimination in ip dosed CD Albino rat; assay type: functional
Mus musculus [21] = experiment: Locomotor activity in CD1 mouse assessed as stimulation at 30 mg/kg, ip after 4 hrs relative to control; assay type: functional; conditions: route intraperitoneal
Mus musculus [22] = experiment: Activity in CD1 mouse assessed as convulsions at 100 mg/kg, ip after 4 hrs; assay type: functional, organism-based; set-up: dose 100 mg/kg
Mus musculus [23] = experiment: Locomotor activity in CD1 mouse assessed as stimulation at 3 mg/kg, ip after 1 hr relative to control; assay type: functional; conditions: route intraperitoneal
Mus musculus [24] = experiment: Activity in CD1 mouse assessed as ptosis at 10 mg/kg, ip after 4 hrs; assay type: functional, organism-based; set-up: dose 10 mg/kg
Mus musculus [25] = experiment: Locomotor activity in CD1 mouse assessed as stimulation at 1 mg/kg, ip after 3 hrs relative to control; assay type: functional; conditions: route intraperitoneal
Mus musculus [26] = experiment: Locomotor activity in CD1 mouse assessed as stimulation at 3 mg/kg, ip after 3 hrs relative to control; assay type: functional; conditions: route intraperitoneal
Mus musculus [27] = experiment: Locomotor activity in CD1 mouse assessed as stimulation at 30 mg/kg, ip after 1 hr relative to control; assay type: functional; conditions: route intraperitoneal
Mus musculus [28] = experiment: Activity in CD1 mouse assessed as hypoactivity at 10 mg/kg, ip after 4 hrs; assay type: functional, organism-based; set-up: dose 10 mg/kg
Mus musculus [29] = experiment: Activity in CD1 mouse assessed as ptosis at 100 mg/kg, ip after 4 hrs; assay type: functional, organism-based; set-up: dose 100 mg/kg
[30] = target: Sodium-dependent serotonin transporter (Homo sapiens, UniProt P31645)
Sodium-dependent serotonin transporter, sequence (P31645 whole entry): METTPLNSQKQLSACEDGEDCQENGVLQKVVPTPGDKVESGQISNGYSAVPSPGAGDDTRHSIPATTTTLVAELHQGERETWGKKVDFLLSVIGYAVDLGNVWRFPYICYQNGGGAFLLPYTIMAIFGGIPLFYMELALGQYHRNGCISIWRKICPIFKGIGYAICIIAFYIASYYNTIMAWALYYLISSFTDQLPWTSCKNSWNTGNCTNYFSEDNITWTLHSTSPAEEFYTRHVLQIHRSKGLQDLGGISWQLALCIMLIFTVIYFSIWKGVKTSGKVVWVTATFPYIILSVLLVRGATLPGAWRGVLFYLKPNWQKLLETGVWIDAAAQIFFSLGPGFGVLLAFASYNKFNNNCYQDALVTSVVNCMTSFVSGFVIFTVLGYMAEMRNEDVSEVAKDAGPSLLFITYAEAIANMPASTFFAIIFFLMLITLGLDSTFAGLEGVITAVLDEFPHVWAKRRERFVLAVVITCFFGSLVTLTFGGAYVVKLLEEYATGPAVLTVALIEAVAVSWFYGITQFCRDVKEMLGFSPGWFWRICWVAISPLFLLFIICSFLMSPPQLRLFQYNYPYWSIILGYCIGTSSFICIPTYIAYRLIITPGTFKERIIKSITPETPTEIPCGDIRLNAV
Description: Displacement of [3H]paroxetine from 5HTT

Mus musculus [31] = experiment: Locomotor activity in CD1 mouse assessed as stimulation at 3 mg/kg, ip after 4 hrs relative to control; assay type: functional; conditions: route intraperitoneal
Mus musculus [32] = experiment: Activity in CD1 mouse assessed as death at 100 mg/kg, ip after 4 hrs; assay type: functional, organism-based; set-up: dose 100 mg/kg
Rattus norvegicus [33] = experiment: Drug discrimination effect in CD Albino rat assessed as percent of rat choosing cocaine lever at 5.6 mg/kg, ip; assay type: functional; conditions: route intraperitoneal
Mus musculus [34] = experiment: Activity in CD1 mouse assessed as slight or intermittent stimulation at 10 mg/kg, ip after 4 hrs; assay type: functional, organism-based; set-up: dose 10 mg/kg
Mus musculus [35] = experiment: Activity in CD1 mouse assessed as hind limb splay at 100 mg/kg, ip after 4 hrs; assay type: functional, organism-based; set-up: dose 100 mg/kg; conditions: Hindlimb
Rattus norvegicus [36] = experiment: Drug discrimination effect in CD Albino rat assessed as percent of rat choosing cocaine lever at 17 mg/kg, ip; assay type: functional; conditions: route intraperitoneal
Rattus norvegicus [37] = experiment: Drug discrimination effect in CD Albino rat assessed as percent of rat choosing cocaine lever at 30 mg/kg, ip; assay type: functional; conditions: route intraperitoneal
Mus musculus [38] = experiment: Activity in CD1 mouse assessed as ataxia at 100 mg/kg, ip after 4 hrs; assay type: functional, organism-based; set-up: dose 100 mg/kg
[39] = target: Sodium-dependent noradrenaline transporter (Homo sapiens, UniProt P23975); experiment: Displacement of [3H]nisoxetine from NET
Sodium-dependent noradrenaline transporter, sequence (P23975 whole entry): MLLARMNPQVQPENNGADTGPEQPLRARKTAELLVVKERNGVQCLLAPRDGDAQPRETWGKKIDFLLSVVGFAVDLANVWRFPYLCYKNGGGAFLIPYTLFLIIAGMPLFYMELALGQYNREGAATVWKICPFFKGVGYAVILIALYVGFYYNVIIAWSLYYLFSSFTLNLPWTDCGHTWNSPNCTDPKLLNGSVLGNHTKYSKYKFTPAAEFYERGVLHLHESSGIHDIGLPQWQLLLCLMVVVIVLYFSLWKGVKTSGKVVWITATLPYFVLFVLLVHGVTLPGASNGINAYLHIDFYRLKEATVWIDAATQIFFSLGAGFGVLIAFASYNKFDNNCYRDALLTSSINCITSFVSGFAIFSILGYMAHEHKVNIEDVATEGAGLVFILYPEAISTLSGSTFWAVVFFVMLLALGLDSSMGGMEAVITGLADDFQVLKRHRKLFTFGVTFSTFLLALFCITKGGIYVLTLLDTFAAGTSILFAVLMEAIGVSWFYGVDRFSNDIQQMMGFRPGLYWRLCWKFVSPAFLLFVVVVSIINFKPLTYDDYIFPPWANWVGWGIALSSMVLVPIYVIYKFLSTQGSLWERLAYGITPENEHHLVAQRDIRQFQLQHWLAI

Structure (SMILES) | Activity (Mus musculus [1]) | Activity (Mus musculus [2]) | Activity (Mus musculus [3]) | Activity (Mus musculus [4]) | Activity (Rattus norvegicus [5]) | Activity (Mus musculus [6]) | Activity (Mus musculus [8]) | Activity (Mus musculus [9]) | Activity (Mus musculus [10]) | IC50 [11] | Activity (Rattus norvegicus [12]) | Activity (Mus musculus [13]) | Activity (Mus musculus [14]) | Activity (Mus musculus [17]) | Activity (Mus musculus [18]) | ED50 (Rattus norvegicus [20]) | Activity (Mus musculus [21]) | Activity (Mus musculus [22]) | Activity (Mus musculus [23]) | Activity (Mus musculus [25]) | other results
COC(=O)[C@H]1C2CCC(C[C@@H]1c1ccc(Br)cc1)N2C (stereo not given in full) | 268% | Active | Active | 267% | 86% | 640% | 26% | 9% | 49% | 15.7 nM | 25% | 74% | -5% | 901% | 123% | 7.29 mg/kg | 373% | Active | 19% | 56% | Activity (Mus musculus [7]): Active; Activity (Mus musculus [15]): Active; Activity (Mus musculus [16]): Active; ED50 (Mus musculus [19]): 10 mg/kg; Activity (Mus musculus [24]): Active; Activity (Mus musculus [26]): 100%; Activity (Mus musculus [27]): -33%; Activity (Mus musculus [28]): Active; Activity (Mus musculus [29]): Active; IC50 [30]: 570 nM; Ki [30]: 140 nM; Activity (Mus musculus [31]): 29%; Activity (Mus musculus [32]): Active; Activity (Rattus norvegicus [33]): 17%
COC(=O)[C@H]1C2CCC(C[C@@H]1c1ccc(C)cc1)N2C (stereo not given in full) | -11% | Active | Active | 6% | 71% | 7% | -76% | -42% | 24% | 207 nM | 13% | 55% | -68% | 17% | 10% | 7.11 mg/kg | 42% | Active | 20% | 39% | Activity (Mus musculus [34]): Active; Activity (Mus musculus [35]): Active; Activity (Rattus norvegicus [36]): 71%; Activity (Rattus norvegicus [37]): 100%; Activity (Mus musculus [26]): -1%; Activity (Mus musculus [27]): -23%; Activity (Mus musculus [38]): Active; IC50 [39]: 2230 nM; Ki [39]: 1120 nM; Activity (Mus musculus [31]): 39%; Activity (Rattus norvegicus [33]): 43%
